Assay results published in patent US20260209219A1, “SUBSTITUTED TETRAHYDROPYRROLO-PYRIDINONE COMPOUNDS AND THEIR USE IN TREATING MEDICAL CONDITIONS” (Karuna Therapeutics, Inc., priority 2022, published 2026).

Assays:
hM4 receptors = target: T1, hM4 receptors (Homo sapiens, UniProt P08173); test: Human M4 PAM pERK assay; assay type: cell-based; conditions: CHO cells expressing hM4; with EC20 of acetylcholine (10 nM final)
T1 construct: expressed in transfected cells; host or cells: CHO cells
T1 sequence (P08173 1-479): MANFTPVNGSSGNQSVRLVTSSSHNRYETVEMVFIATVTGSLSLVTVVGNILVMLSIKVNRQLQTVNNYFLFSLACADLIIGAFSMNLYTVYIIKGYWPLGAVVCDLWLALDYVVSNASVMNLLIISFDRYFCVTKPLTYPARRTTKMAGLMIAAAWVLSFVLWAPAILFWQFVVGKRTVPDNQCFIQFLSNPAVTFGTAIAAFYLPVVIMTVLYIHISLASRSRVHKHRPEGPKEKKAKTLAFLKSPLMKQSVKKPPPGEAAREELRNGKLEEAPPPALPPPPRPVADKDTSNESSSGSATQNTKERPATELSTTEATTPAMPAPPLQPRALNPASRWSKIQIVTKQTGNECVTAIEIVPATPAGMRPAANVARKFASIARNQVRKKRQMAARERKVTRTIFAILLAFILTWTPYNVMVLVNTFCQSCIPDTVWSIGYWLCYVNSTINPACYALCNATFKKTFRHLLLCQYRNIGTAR
Protocol: (§1) Chinese hamster ovary (CHO) cells expressing either hM4 or rM4 receptors were frozen in assay ready vials (5×10^6 cells/vial) after bulking-up in culture. The day before an assay, vial(s) were thawed and cells seeded in 384 well white proxiplates at 1000/well for hM4 cells and at 2000/well for rM4 cells, in 10 μL of growth media (Hams/F12 with glutamax and 10% FCS) and incubated overnight at 37° C./5% CO2.
(§2) On the following morning, the growth media was removed by ‘flicking out’ over a bin, patting the inverted plate onto tissue, and then replacing with 10 μL of wash media (Hams/F12 with glutamax and 8 mM HEPES, NB: serum free). Then, the wash media was removed in the same way and replaced with 8 μL/well of the serum free media. Plates were then re-incubated for a further 4 hours at 37° C./5% CO2.
(§3) Compounds for testing were solubilized to 10 mM in DMSO and compound addition plates, consisting of ten-point concentration response curves (CRC) in duplicate points (10 μM top concentration, ½ log dilution series), were prepared by acoustic dispensing and the compound management group.
(§4) After the 4-hour incubation in serum free media, a 4 μL aliquot of the 3× compound solution containing an EC20 of acetylcholine (10 nM final concentration) was added to the cell plate using a 384 well plate to plate transfer. Then, the plate lid was replaced, and the cells incubated for 5 mins at 37° C./5% CO2. Following this final incubation, all cellular processes were stopped by the addition of 4 μL/well of lysis and blocking buffer and plates were incubated for 30 minutes at RT on an orbital shaker (gentle setting). Then, a final addition of 4 μL/well of antibody detection mix, containing both the Europium-Cryptate (donor) and d2 (acceptor) tagged detection components, was added followed by a further 2-hour incubation at RT, and then the plate was read using a TR-FRET (time resolved fluorescence resonance energy transfer) based protocol.

rM4 receptors = target: T2, rM4 receptors (Rattus norvegicus, UniProt P08485); test: Rat M4 PAM pERK assay; assay type: cell-based; conditions: CHO cells expressing rM4; with EC20 of acetylcholine (10 nM final)
T2 construct: expressed in transfected cells; host or cells: CHO cells
T2 sequence (P08485 1-478): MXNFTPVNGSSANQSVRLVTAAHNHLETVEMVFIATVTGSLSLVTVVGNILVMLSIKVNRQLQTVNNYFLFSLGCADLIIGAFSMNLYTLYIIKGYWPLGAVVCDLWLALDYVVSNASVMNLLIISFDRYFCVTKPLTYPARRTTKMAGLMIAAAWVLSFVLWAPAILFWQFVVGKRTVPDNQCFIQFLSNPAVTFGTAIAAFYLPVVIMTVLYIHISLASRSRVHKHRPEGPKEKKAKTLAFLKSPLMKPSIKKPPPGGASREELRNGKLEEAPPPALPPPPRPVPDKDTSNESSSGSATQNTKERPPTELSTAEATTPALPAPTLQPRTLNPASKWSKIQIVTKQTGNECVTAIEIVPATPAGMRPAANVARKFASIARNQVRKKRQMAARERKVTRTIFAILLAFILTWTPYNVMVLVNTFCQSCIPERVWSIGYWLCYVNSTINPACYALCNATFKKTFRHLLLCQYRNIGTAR
Protocol: as §1, §2, §3, §4

human M4 receptor = target: T3, human M4 receptor (Homo sapiens, UniProt P08173); test: M4 GTPγS PAM assay; assay type: biochemical; conditions: membranes of CHO-K1 cells stably expressing human M4; EC20 acetylcholine 40 nM
T3 construct: expressed in transfected cells; host or cells: CHO-K1 cells (membrane preparation)
T3 sequence (P08173 1-479): T1 sequence (P08173 1-479)
Protocol: The M4 GTPγS PAM method was used. Membranes were prepared for GTPgS binding assays from CHO-K1 cells stably expressing human M4 receptor. Briefly, cells were grown in 5-layer cell culture flasks. Cells were washed with 50 mL of PBS and then dissociated with 0.05% trypsin. Dissociated cells were then collected by centrifugation at 650×g for 8 minutes at 4° C. Pellets were washed again in PBS by centrifugation and resuspended in 30 mL of 20 mM HEPES, 10 mM EDTA, pH 7.4. After sitting on ice for 30 min, membranes were collected by centrifugation at 50000×g for 15′ at 4° C., resuspended in 30 mL of 20 mM HEPES, 0.1 mM EDTA, pH 7.4 and collected again by centrifugation. Pellets were then washed twice by centrifugation in 30 mL of 20 mM HEPES, pH 7.4, and stored at −80° C. until the day of the assay. On the day of the assay, pellets were thawed on ice and resuspended in 1 mL of 20 mM HEPES, pH 7.4, 10 mM MgCl2, 100 mM NaCl using dounce homogenization. Membrane protein concentration is determined by BCA protein assay (Promega, Madison, WI) according to Promega guidelines.
On the day of the assay, serial dilutions of test PAM compounds were brought up in assay buffer (20 mM HEPES, 10 mM MgCl2, 100 mM NaCl) at 4× final assay concentration. […] of membrane homogenates (containing […] of membrane protein) were prepared in assay buffer supplemented with GDP at 4× final assay concentration (final assay concentration of GDP is 5 μM for M2 and 0.1 μM for M4) and dispensed into 96 well polypropylene, U-bottom Greiner plates. […] of vehicle or test PAM compound at 4× of final assay concentration diluted in the assay buffer were added to membrane and plates are incubated for 10-15 minutes at room temperature with gentle shaking. Then, […] of EC20 acetylcholine in assay buffer at 4× final assay concentration was added to assay plates (EC20 final assay concentrations was 40 nM for human M4).
Plates were then incubated, with shaking, for an additional 10-15 minutes. 25 mL of 0.4 nM ^35S-GTP (Perkin Elmer, Waltham, MA) in assay buffer was added to assay mixtures. The binding reaction is left on the shaker for 1 hour at room temperature. Membranes in assay reactions were then transferred to GF/C filter plates (Unifilter, Perkin Elmer) and washed three times using a FilterMate Harvester (Perkin Elmer) with cold assay buffer containing no GDP. Filter plates were then dried at 40° C. overnight followed by the addition of […] of Beta Plate Scintillation liquid. Plates are top and bottom sealed before being read on TopCount scintillation counter (Perkin Elmer, Waltham, MA).

EC50 (hM4 receptors) [nM] | EC50 (rM4 receptors) [nM] | EC50 (human M4 receptor) [nM] | SMILES
500 to 2000 | 500 to 2000 | 100 to 500 | Cc1c2c(n(C)c(=O)c1Cl)CN(C(=O)CC1CC1c1ccc(C(F)(F)F)cc1)C2 (single isomer, unassigned) [Compound I-32]
< 100 | < 100 | < 100 | Cc1c2c(n(C)c(=O)c1Cl)CN(C(=O)CC1CC1c1ccc(C(F)(F)F)cc1)C2 (single isomer, unassigned) [Compound I-33]
500 to 2000 | > 2000 | > 2000 | Cc1c2c(n(C)c(=O)c1Cl)CN(C(=O)CC1CC1c1cc(F)cc(F)c1)C2 (single isomer, unassigned) [Compound I-35]
< 100 | < 100 | < 100 | Cc1c2c(n(C)c(=O)c1Cl)CN(C(=O)CC1CC1c1cc(F)cc(F)c1)C2 (single isomer, unassigned) [Compound I-36]
< 100 | 100 to 500 | < 100 | Cc1c2c(n(C)c(=O)c1C)CN(C(=O)CC1CC1c1cc(F)cc(F)c1)C2 (stereo not drawn) [Compound I-21]
< 100 | 100 to 500 | < 100 | Cc1c2c(n(C)c(=O)c1C)CN(C(=O)CC1CC1c1cccc(F)c1F)C2 (stereo not drawn) [Compound I-24]
< 100 | < 100 | < 100 | Cc1c2c(n(C)c(=O)c1Cl)CN(C(=O)CC1CC1c1cc(F)cc(F)c1)C2 (stereo not drawn) [Compound I-34]

The next lines start with the compound.

SMILES | EC50 (hM4 receptors) [nM] | EC50 (rM4 receptors) [nM] | EC50 (human M4 receptor) [nM]
COc1c2c(n(C)c(=O)c1C)CN(C(=O)CC1CC1c1ccc(C(F)(F)F)cc1)C2 (single isomer, unassigned) [Compound I-29, 4-Methoxy-1,3-dimethyl-6-([trans-2-(2-(4-(trifluoromethyl)phenyl)cyclopropyl)]acetyl)-1,5,6,7-tetrahydro-2H-pyrrolo[3,4-b]pyridin-2-one] | 100 to 500 | 100 to 500 | < 100
Cc1cc(=O)n(C)c2c1CN(C(=O)CC1CC1c1ccc(C(F)(F)F)nc1)C2 (stereo not drawn) [Compound I-3] | 500 to 2000 | 500 to 2000 | 500 to 2000
Cc1cc(=O)n(C)c2c1CN(C(=O)CC1CC1)C2 [Compound I-10] | 500 to 2000 | > 2000 | 500 to 2000
Cc1cc(=O)n(C)c2c1CN(C(=O)CC1CC1c1cccc(C3COC3)c1)C2 (stereo not drawn) [Compound I-12] | 100 to 500 | 500 to 2000 | > 2000
COc1c2c(n(C)c(=O)c1C)CN(C(=O)CC1CC1c1ccc(C(F)(F)F)cc1)C2 (stereo not drawn) [Compound I-30] | > 2000 | 500 to 2000 | > 2000
